Values quoted from earlier work, collected in patent US4537898A, “Liquid formulations of dihydropyridines” (priority 1983, dated 1985).

solubility in water: 0.2 mg per 100 ml
SMILES: COCCOC(=O)C1=C(C)NC(C)=C(C(=O)OC(C)C)C1c1cccc([N+](=O)[O-])c1 (stereo not shown) [nimodipine, Nimodipine]
